This test concerns the target LRRK2 Ser935 phosphorylation in SH-SY5Y cells over-expressing recombinant full length LRRK2 (Homo sapiens (Human), UniProt Q5S007). The test can be described thus: Recombinant cellular LRRK2 AlphaScreen assay. It is filed as cell-based. Particulars: 60 minutes, read-out: Recombinant cellular LRRK2 alphaScreen assay (pIC50) (converted). From the text:
To determine the activity of compounds against LRRK2 kinase activity in cells, the observed LRRK2 kinase-dependent modulation of LRRK2 Ser 935 phosphorylation (Dzamko et al., 2010, Biochem. J. 430: 405-413) was utilized to develop a quantitative 384 well plate-based immunoassay of LRRK2 Ser935 phosphorylation in the human neuroblastoma cell line SH-SY5Y, engineered to over-express recombinant full length LRRK2 protein.
A BacMam virus expressing full length recombinant LRRK2 was purchased from Invitrogen and amplified by inoculation of SF-9 cells at MOI 0.3 for 4-5 days in Sf-900 III SFM medium supplemented with 3% fetal bovine serum. Infected cell cultures were then centrifuged at 2000 g for 20 minutes, viral supernatant titer determined by anti-gp64 plaque assay and stored at 4° C.
Affinity-purified anti-phospho LRRK2 Ser935 sheep polyclonal antibody (Dzamko et al., 2010, Biochem. J. 430: 405-413) was biotinylated by standard methods (PerkinElmer). Anti-LRRK2 rabbit polyclonal antibody was purchased from Novus Biologicals. AlphaScreen Protein A IgG Kit (including acceptor and donor beads) was purchased from Perkin Elmer.
SH-SY5Y cells were grown in DMEM/F12 medium with 10% dialysed fetal bovine serum and harvested by treatment with 0.5% trypsin-EDTA for 5 minutes at 37° C. followed by centrifugation at 1000 rpm for 4 minutes. The cell pellet was resuspended in Opti-MEM reduced serum media (Invitrogen) at 200,000 cells/ml and mixed with the BacMam LRRK2 virus at M01=50. 50 μl cell solutions were then dispensed to each well of a 384-well plate and incubated at 37° C., 5% CO2 for 24 hours.
Serial dilutions of test compounds were prepared in Opti-MEM reduced serum media (Invitrogen) and 5.6 ul transferred from compound plate to cell assay plate to achieve a top final assay concentration of 10 uM. DMSO was used in certain wells as controls. Cells were incubated at 37° C., 5% CO2 for 60 minutes. The medium was then removed and cells lysed by addition of 20 ul cell lysis buffer (Cell Signaling Technology) and incubation at 4° C. for 20 minutes. 10 ul of antibody/acceptor bead mix [( 1/1000 biotinylated-pS935 LRRK2 antibody, 1/1000 total-LRRK2 antibody, 1/100 Acceptor beads in AlphaScreen detection buffer (25 mM Hepes (pH 7.4), 0.5% Triton X-100, 1 mg/ml Dextran 500 and 0.1% BSA)] was then added to each well and plates incubated for 2 hours at ambient temperature in the dark. 10 μl of donor beads solution (1/33.3 donor beads in AlphaScreen detection buffer) was then added to each well. Following incubation for a further 2 hours at ambient temperature in the dark, plates were read on an EnVision™ plate reader at emission 520-620 nm with excitation 680 nm. Dose response curve data was based on sigmoidal dose-response model.
On the technique in general: In Alpha technology, singlet oxygen from a donor bead excites a nearby acceptor bead.

Bounds are passed on as bounds.

Sequence of LRRK2 Ser935 phosphorylation in SH-SY5Y cells over-expressing recombinant full length LRRK2 (Q5S007 whole entry): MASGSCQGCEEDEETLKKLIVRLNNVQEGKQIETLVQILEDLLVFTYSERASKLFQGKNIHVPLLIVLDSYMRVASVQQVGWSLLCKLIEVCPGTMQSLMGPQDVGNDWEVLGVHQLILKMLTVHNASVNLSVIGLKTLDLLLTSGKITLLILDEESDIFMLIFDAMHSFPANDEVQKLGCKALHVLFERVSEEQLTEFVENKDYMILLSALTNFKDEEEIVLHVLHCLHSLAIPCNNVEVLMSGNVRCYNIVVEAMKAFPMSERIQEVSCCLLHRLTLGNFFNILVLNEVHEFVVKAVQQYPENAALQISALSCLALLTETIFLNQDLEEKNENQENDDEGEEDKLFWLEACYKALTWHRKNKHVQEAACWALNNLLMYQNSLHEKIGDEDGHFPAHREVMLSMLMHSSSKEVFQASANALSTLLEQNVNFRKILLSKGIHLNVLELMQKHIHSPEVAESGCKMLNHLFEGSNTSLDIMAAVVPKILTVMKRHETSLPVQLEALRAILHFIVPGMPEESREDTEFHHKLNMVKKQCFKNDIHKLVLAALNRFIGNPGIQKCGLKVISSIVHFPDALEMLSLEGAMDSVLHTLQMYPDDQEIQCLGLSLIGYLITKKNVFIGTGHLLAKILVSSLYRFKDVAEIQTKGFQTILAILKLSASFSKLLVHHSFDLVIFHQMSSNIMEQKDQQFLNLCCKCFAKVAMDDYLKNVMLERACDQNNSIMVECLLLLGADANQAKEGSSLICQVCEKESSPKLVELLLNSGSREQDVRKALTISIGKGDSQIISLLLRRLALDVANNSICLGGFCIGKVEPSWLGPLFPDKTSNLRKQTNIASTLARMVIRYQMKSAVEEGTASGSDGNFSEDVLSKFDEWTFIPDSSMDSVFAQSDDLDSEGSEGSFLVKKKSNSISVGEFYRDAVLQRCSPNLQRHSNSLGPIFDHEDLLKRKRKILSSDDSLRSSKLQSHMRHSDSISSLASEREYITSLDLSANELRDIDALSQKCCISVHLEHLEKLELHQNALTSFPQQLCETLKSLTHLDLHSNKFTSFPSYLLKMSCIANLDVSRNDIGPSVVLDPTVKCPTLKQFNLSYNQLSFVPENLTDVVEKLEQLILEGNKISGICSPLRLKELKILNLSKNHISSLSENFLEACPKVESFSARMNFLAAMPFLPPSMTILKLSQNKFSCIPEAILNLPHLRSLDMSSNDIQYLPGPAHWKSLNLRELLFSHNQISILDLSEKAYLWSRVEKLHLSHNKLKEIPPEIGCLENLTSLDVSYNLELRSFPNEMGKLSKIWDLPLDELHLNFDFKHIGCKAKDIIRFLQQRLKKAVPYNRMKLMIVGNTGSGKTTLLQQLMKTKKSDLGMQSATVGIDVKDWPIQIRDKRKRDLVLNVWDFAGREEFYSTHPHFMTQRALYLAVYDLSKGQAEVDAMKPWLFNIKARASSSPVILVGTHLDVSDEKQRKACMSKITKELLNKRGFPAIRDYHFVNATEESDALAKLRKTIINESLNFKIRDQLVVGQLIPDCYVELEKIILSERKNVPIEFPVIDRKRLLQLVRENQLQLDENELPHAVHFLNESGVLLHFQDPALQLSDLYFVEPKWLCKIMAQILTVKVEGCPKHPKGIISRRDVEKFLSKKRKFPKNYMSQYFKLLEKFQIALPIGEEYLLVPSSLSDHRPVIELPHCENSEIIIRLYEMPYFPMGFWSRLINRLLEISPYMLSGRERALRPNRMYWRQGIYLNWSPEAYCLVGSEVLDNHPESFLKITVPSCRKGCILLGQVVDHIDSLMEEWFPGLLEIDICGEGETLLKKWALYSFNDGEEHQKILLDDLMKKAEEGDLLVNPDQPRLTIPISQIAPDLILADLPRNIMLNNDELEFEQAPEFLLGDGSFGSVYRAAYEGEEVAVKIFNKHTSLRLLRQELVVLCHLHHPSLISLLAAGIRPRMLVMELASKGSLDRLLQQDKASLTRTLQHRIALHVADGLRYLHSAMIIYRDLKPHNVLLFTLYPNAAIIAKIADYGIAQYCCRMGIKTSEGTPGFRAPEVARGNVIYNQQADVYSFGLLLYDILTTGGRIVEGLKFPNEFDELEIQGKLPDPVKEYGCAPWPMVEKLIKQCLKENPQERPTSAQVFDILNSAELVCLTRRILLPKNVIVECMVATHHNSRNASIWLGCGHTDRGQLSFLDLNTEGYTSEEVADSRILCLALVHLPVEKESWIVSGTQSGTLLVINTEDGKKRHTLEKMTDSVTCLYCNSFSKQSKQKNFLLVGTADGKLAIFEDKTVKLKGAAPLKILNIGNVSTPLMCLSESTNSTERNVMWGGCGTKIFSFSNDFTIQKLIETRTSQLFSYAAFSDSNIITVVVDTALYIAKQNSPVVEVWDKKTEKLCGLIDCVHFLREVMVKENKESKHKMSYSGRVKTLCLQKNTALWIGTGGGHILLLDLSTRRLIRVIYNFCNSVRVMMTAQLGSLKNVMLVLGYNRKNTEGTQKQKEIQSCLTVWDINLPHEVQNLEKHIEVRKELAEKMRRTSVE

Regarding `Cc1cc2cnn(-c3cc(N4CCOCC4)nc(OC(C)C)n3)c2cc1C1CCN(C)CC1(F)F` (single isomer, unassigned) [Example E7, 4-(6-(6-(3,3-Difluoro-1-methylpiperidin-4-yl)-5-methyl-1H-indazol-1-yl)-2-isopropoxypyrimidin-4-yl)morpholine], the IC50 is above 10000 nM.
In the case of `Cc1cc2cnn(-c3cc(N4CCOCC4)nc(C#N)n3)c2cc1C1CCN(C)CC1(F)F` (single isomer, unassigned) [Example E9, 4-(6-(3,3-Difluoro-1-methylpiperidin-4-yl)-5-methyl-1H-indazol-1-yl)-6-morpholinopyrimidine-2-carbonitrile] it was above 10000 nM.
In the case of `CCc1nc(N2CCOCC2)cc(-n2ncc3cc(C)c(C4CCN(C)CC4(F)F)cc32)n1` (single isomer, unassigned) [Example E11, 4-(6-(6-(3,3-Difluoro-1-methylpiperidin-4-yl)-5-methyl-1H-indazol-1-yl)-2-ethylpyrimidin-4-yl)morpholine] it was above 10000 nM; in that of `CCOc1nc(N2CCOCC2)cc(-n2ncc3cc(C)c(C4CCN(C5COC5)CC4(F)F)cc32)n1` (single isomer, unassigned) [Example E24, 4-(6-(6-(3,3-Difluoro-1-(oxetan-3-yl)piperidin-4-yl)-5-methyl-1H-indazol-1-yl)-2-ethoxypyrimidin-4-yl)morpholine], at most 100 nM.
In the case of `Cc1cc2cnn(-c3cc(N4CCOCC4)nc(OC(C)C)n3)c2cc1C1CCN(C2COC2)CC1(F)F` (single isomer, unassigned) [Example E25, 4-(6-(6-(3,3-Difluoro-1-(oxetan-3-yl)piperidin-4-yl)-5-methyl-1H-indazol-1-yl)-2-isopropoxypyrimidin-4-yl)morpholine] it was above 10000 nM.
Regarding `CNC(=O)[C@H]1CN(c2cc(-n3ncc4cc(C)c(C5CCN(CCOC)CC5F)cc43)ncn2)CCO1` (single isomer, unassigned) [Example E29], the IC50 was at most 100 nM.
In the case of `CNC(=O)[C@@H]1CN(c2cc(-n3ncc4cc(C)c(C5CCN(CCOC)CC5F)cc43)ncn2)CCO1` (single isomer, unassigned) [Example E30] it was at most 100 nM; in that of `CNC(=O)[C@@H]1CN(c2cc(-n3ncc4cc(C)c(C5CCN(C6COC6)CC5F)cc43)ncn2)CCO1` (single isomer, unassigned) [Example E34], at most 100 nM; in that of `CNC(=O)[C@H]1CN(c2cc(-n3ncc4cc(C)c(C5CCN(C6COC6)CC5F)cc43)ncn2)CCO1` (single isomer, unassigned) [Example E35], at most 100 nM.
For `Cc1nc(-n2ncc3cc(C)c(C4CCN(C5COC5)CC4F)cc32)cc([C@H]2C[C@@H](O)C2)n1` (single isomer, unassigned) [Example E44, (cis)-(1s,3s)-3-(6-(6-(3-Fluoro-1-(oxetan-3-yl)piperidin-4-yl)-5-methyl-1H-indazol-1-yl)-2-methylpyrimidin-4-yl)cyclobutanol] the value was at most 100 nM; for `Cc1cc2cnn(-c3cc(N4CC(O)C4)nc(C4CC4)n3)c2cc1[C@H]1CCN(C)C[C@H]1F` (single isomer, unassigned) [Example E46, (cis)-1-(2-Cyclopropyl-6-(6-(3-fluoro-1-methylpiperidin-4-yl)-5-methyl-1H-indazol-1-yl)pyrimidin-4-yl)azetidin-3-ol], at most 100 nM.
For `COc1nc(N2CC(O)C2)cc(-n2ncc3cc(C)c([C@@H]4CN(C)C[C@@H]4F)cc32)n1` (single isomer, unassigned) [Example E74, (cis)-1-(6-(6-(4-Fluoro-1-methylpyrrolidin-3-yl)-5-methyl-1H-indazol-1-yl)-2-methoxypyrimidin-4-yl)azetidin-3-ol] the value was above 10000 nM; for `COCCN1CCC(c2ncc3cnn(-c4ccnc(N5CCOCC5)c4)c3n2)C(F)C1` (single isomer, unassigned) [Example E76, (cis)-4-(4-(6-(3-Fluoro-1-(2-methoxyethyl)piperidin-4-yl)-1H-pyrazolo[3,4-d]pyrimidin-1-yl)pyridin-2-yl)morpholine], above 10000 nM; for `COc1nc(N2CC(O)C2)cc(-n2ncc3cc(C)c(C4CCN(C)C(=O)C4)cc32)n1` (single isomer, unassigned) [Example E87, 4-(1-(6-(3-Hydroxyazetidin-1-yl)-2-methoxypyrimidin-4-yl)-5-methyl-1H-indazol-6-yl)-1-methylpiperidin-2-one], above 10000 nM.
Consider `Cc1nc(N2CC[C@H](O)C2)cc(-n2ncc3cc(C)c(C4CCN(C)CC4F)cc32)n1` (single isomer, unassigned) [Example E128], for which the IC50 is at most 100 nM.
For the compound `Cc1nc(N2CC(OCCO)C2)cc(-n2ncc3cc(C)c([C@H]4CCN(C)C[C@H]4F)cc32)n1` (single isomer, unassigned) [Example E132, (cis)-2-((1-(6-(6-(3-Fluoro-1-methylpiperidin-4-yl)-5-methyl-1H-indazol-1-yl)-2-methylpyrimidin-4-yl)azetidin-3-yl)oxy)ethanol], the IC50 was at most 100 nM.
In the case of `CCN1CC[C@H](c2cc3c(cnn3-c3cc(N4CC(O)C4)nc(C)n3)cc2C)[C@H](F)C1` (single isomer, unassigned) [Example E146, (cis)-1-(6-(6-(1-Ethyl-3-fluoropiperidin-4-yl)-5-methyl-1H-indazol-1-yl)-2-methylpyrimidin-4-yl)azetidin-3-ol] it was at most 100 nM; in that of `COc1nc(N2CC(O)C(F)C2)cc(-n2ncc3cc(C)c(C4CCN(C5COC5)CC4)cc32)n1` (single isomer, unassigned) [Example E219, (trans)-4-Fluoro-1-(2-methoxy-6-(5-methyl-6-(1-(oxetan-3-yl)piperidin-4-yl)-1H-indazol-1-yl)pyrimidin-4-yl)pyrrolidin-3-ol], at most 100 nM.
For `COc1nc(N2CC(O)C2)cc(-n2ncc3cc(C)c(C4(F)CCCN(C)C4)cc32)n1` (single isomer, unassigned) [Example E221, 1-(6-(6-(3-Fluoro-1-methylpiperidin-3-yl)-5-methyl-1H-indazol-1-yl)-2-methoxypyrimidin-4-yl)azetidin-3-ol] the value was above 10000 nM.
For `Cc1nc(N2CC(O)C2)cc(-n2ncc3cc(C)c(C4CN(C)CCO4)cc32)n1` (single isomer, unassigned) [Example E228, 1-(2-M ethyl-6-(5-methyl-6-(4-methylmorpholin-2-yl)-1H-indazol-1-yl)pyrimidin-4-yl)azetidin-3-ol] the value was above 10000 nM; for `COc1nc(N2CC(O)C2)cc(-n2ncc3cc(C)c(C4CN(C)CCO4)cc32)n1` (single isomer, unassigned) [Example E229, 1-(2-Methoxy-6-(5-methyl-6-(4-methylmorpholin-2-yl)-1H-indazol-1-yl)pyrimidin-4-yl)azetidin-3-ol], above 10000 nM.
For the compound `Cc1nc(N2CCO[C@@H](CO)C2)cc(-n2ncc3cc(C)c(C4CCCOC4)cc32)n1` (single isomer, unassigned) [Example E240], the IC50 was above 10000 nM.
In the case of `Cc1nc(N2CCO[C@@H](CO)C2)cc(-n2ncc3cc(C)c(C4CCCCO4)cc32)n1` (single isomer, unassigned) [Example E245] it was above 10000 nM; in that of `Cc1nc(N2CC(O)C2)cc(-n2ncc3cc(C)c(C4CCOCC4F)cc32)n1` (single isomer, unassigned) [Example E246, 1-(6-(6-(3-Fluorotetrahydro-2H-pyran-4-yl)-5-methyl-1H-indazol-1-yl)-2-methylpyrimidin-4-yl)azetidin-3-ol], at most 100 nM.
In the case of `Cc1nc(N2CCO[C@@H](CO)C2)cc(-n2ncc3cc(C)c(C4CCOCC4F)cc32)n1` (single isomer, unassigned) [Example E250] it was at most 100 nM; in that of `Cc1nc(N2CCOC(C(C)O)C2)cc(-n2ncc3cc(C)c(C4CCN(C5COC5)CC4)cc32)n1` (single isomer, unassigned) [Example E268, 1-(4-(2-Methyl-6-(5-methyl-6-(1-(oxetan-3-yl)piperidin-4-yl)-1H-indazol-1-yl)pyrimidin-4-yl)morpholin-2-yl)ethanol], at most 100 nM.
For `Cc1nc(N2CCO[C@H](CO)C2)cc(-n2ncc3cc(C)c(C4CCCCO4)cc32)n1` (single isomer, unassigned) [Example E271] the value was above 10000 nM.

For the origin of these results see patent US10975081B2, “Substituted fused pyrazole compounds and their use as LRRK2 inhibitors” (GlaxoSmithKline Intellectual Property Development Limited, priority 2015, dated 2021).
